PMC12446565, “Perinatal Maturation of Drug Transporters and Claudin‐5 at the Blood–Brain Barrier” (CNS Neuroscience & Therapeutics, 2025)
Where two headings read alike, the source gives them in different places.

How the values were obtained:
[1] = Swiss, mouse, in vivo
Protocol: (§1) Mice were then decapitated according to selected time points, with blood samples collected following decapitation. The brain was then removed from the skull. For each mouse, the brain hemispheres and two blood samples were weighed in Econo glass vials for liquid scintillation counting (Perkin Elmer). All samples were treated with a tissue solubilizer (Solvable, Perkin Elmer). Blood samples were in addition decolored with 0.2 mL of 30% hydrogen peroxide solution to avoid color quenching issues. After complete tissue sample digestion (24 h in a water bath at 45°C), the vials were cooled and mixed with Ultima‐gold XR (Perkin Elmer). The radioactivity in each vial, expressed in disintegrations per minute (dpm) for ^3H and ^14C, was counted in a Perkin Elmer Tri‐Carb counter.
For [^3H]rosuvastatin, data collection was performed at 5 and 7 min post i.p. injection. […] This avoids quantification bias caused by the formation of possible radiolabelled metabolites.
First, the vascular volume (V vasc, μL/g) was estimated for each mouse as the brain volume of distribution (V d) of [^14C]sucrose: […]

[2] = BBB integrity: vascular volume (V vasc) of [14C]sucrose after i.p. injection; assay type: in vivo, Swiss mice; conditions: for Kp at 5 min: Swiss, mouse, brain/blood, ip, 0.31 MBq/kg, 5 min post i.p. injection
Protocol: as §1
First, the vascular volume (V vasc, μL/g) was estimated for each mouse as the brain volume of distribution (V d) of [^14C]sucrose:
[^14C]sucrose V d was calculated as the ratio of midbrain to blood carbon‐14 associated radioactivity (dpm/g) measured at 5 min post i.p. injection. Vvasc=Vdsucrose=Xsucrose,brain/Csucrose,blood
Where X sucrose,brain (dpm/g), is the calculated amount of [^14C]sucrose from the brain and C sucrose,blood (dpm/μL) its blood concentration. The data for any animal whose V vasc was an aberrant value was excluded from the study.
The vascular volume based [^14C]sucrose calculation was used as the outcome parameter for BBB integrity. Higher levels in V vasc indicate leakage of [^14C]sucrose into the brain parenchyma because of BBB leakage.

CC(C)c1nc(N(C)S(C)(=O)=O)nc(-c2ccc(F)cc2)c1/C=C/[C@@H](O)C[C@@H](O)CC(=O)O [3H-Rosuvastatin, rosuvastatin]
decrease of cerebral (brain) transport at P30 compared to P15 [1]: 6.8 fold

OC[C@H]1O[C@@](CO)(O[C@H]2O[C@H](CO)[C@@H](O)[C@H](O)[C@H]2O)[C@@H](O)[C@@H]1O [14C-Sucrose, sucrose]
Kp at 5 min ([2]; mice at P5, brain/blood ratio, read-out: Vv, Mean): 0.0276
Kp at 5 min ([2]; mice at P5, read-out: Vv, Median): 0.0235
Kp at 5 min ([2]; mice at P15, brain/blood ratio, read-out: Vv, Mean): 0.0272
Kp at 5 min ([2]; mice at P15, read-out: Vv, Median): 0.0256
Kp at 5 min ([2]; mice at P30, brain/blood ratio, read-out: Vv, Mean): 0.0279
Kp at 5 min ([2]; mice at P30, read-out: Vv, Median): 0.0292
V vasc, comparison between ages ([2]; mice at P5, P15 and P30): did not differ between P5, P15, and P30
